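Cultured in 96-well plates, cells were exposed to test compound for 48 hours across five concentrations. GI50 marks 50% less growth. At the TGI there is no net growth.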
What was measured:
Test in all cases: growth of human tumour cells (NCI), 48 h
[1] = tested on: 786-0 renal
[2] = tested on: ACHN renal
[3] = tested on: DU-145 prostate
[4] = tested on: HCC-2998 colon
[5] = tested on: HCT-116 colon
[6] = tested on: HCT-15 colon
[7] = tested on: HOP-62 NSCLC
[8] = tested on: M14 melanoma
[9] = tested on: MDA-MB-231 breast
[10] = tested on: NCI-H23 lung
[11] = tested on: OVCAR-5 ovarian
[12] = tested on: RXF 393 renal
[13] = tested on: SK-MEL-5 melanoma
[14] = tested on: SK-OV-3 ovarian
[15] = tested on: SW-620 colon

Compound: CSc1ccc2c(c1)C(=O)c1c-2n(CCCN)c(=O)c2cc([N+](=O)[O-])ccc12
- GI50 [1]: 0.0127 µM
- TGI [1]: 0.108 µM
- GI50 [2]: < 0.01 µM
- TGI [2]: 0.327 µM
- GI50 [3]: < 0.01 µM
- TGI [3]: 0.16 µM
- GI50 [4]: 0.104 µM
- TGI [4]: 0.581 µM
- GI50 [5]: < 0.01 µM
- TGI [5]: 0.173 µM
- GI50 [6]: 0.0962 µM
- TGI [6]: 0.249 µM
- GI50 [7]: < 0.01 µM
- TGI [7]: 0.147 µM
- GI50 [8]: 0.0249 µM
- TGI [8]: 1.07 µM
- GI50 [9]: 0.215 µM
- TGI [9]: 0.422 µM
- GI50 [10]: < 0.01 µM
- TGI [10]: 0.158 µM
- GI50 [11]: 0.123 µM
- TGI [11]: 0.872 µM
- GI50 [12]: 1.95 µM
- TGI [12]: > 100 µM
- GI50 [13]: 0.127 µM
- TGI [13]: 1.63 µM
- GI50 [14]: < 0.0117 µM
- TGI [14]: 1.37 µM
- GI50 [15]: < 0.01 µM
- TGI [15]: 0.209 µM

Source: PubChem BioAssay (NCI)
